Experimental data: ChEMBL document CHEMBL1795309, “Thiophenyl oxime-derived phosphonates as nano-molar class C beta-lactamase inhibitors reducing MIC of imipenem against Pseudomonas aeruginosa and Acinetobacter baumannii” (Bioorg Med Chem Lett, 2011)
Active and inactive are the calls of the source. The calls are words filed in the database; no cut-off is given here.

Experiments:
Beta-lactamase SHV-5 = Beta-lactamase SHV-5 (Klebsiella pneumoniae, UniProt P0A3M1); assay: Inhibition of Klebsiella pneumoniae beta lactamase SHV-5
Beta-lactamase SHV-5, sequence (P0A3M1 whole entry): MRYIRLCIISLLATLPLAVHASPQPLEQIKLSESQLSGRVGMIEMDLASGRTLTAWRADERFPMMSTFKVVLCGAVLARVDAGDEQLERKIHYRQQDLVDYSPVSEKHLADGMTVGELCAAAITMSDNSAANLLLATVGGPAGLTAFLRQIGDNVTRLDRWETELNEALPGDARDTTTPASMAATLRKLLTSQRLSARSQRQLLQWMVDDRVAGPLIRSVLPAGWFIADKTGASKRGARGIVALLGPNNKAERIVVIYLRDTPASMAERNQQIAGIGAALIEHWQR

Beta-lactamase [1] = molecular target: Beta-lactamase (Acinetobacter baumannii, UniProt Q8RLA6); assay: Inhibition of Acinetobacter baumannii beta lactamase OXA-40
Beta-lactamase (Acinetobacter baumannii, UniProt Q8RLA6), sequence (Q8RLA6 whole entry): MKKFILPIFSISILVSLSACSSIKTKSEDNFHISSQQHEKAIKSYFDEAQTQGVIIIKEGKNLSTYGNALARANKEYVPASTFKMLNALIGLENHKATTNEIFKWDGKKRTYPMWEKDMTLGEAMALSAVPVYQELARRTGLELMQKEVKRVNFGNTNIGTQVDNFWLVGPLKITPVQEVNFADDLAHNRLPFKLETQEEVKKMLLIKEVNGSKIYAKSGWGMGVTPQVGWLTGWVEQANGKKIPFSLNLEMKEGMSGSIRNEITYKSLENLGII

Beta-lactamase [2] = molecular target: Beta-lactamase (Enterobacter cloacae, UniProt P05364); assay: Inhibition of Enterobacter cloacae beta lactamase P99
Beta-lactamase (Enterobacter cloacae, UniProt P05364), sequence (P05364 whole entry): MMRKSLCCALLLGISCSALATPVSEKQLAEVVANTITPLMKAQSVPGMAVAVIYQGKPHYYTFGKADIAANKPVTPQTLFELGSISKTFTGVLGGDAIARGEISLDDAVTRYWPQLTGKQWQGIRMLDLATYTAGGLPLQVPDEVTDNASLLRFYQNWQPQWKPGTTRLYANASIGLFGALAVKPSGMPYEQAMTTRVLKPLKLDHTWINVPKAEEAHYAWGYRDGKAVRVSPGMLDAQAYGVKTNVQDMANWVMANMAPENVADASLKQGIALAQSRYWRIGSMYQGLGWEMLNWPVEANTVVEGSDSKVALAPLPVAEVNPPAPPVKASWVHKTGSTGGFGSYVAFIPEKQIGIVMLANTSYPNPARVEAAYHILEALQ

Beta-lactamase [3] = molecular target: Beta-lactamase (Pseudomonas aeruginosa (strain ATCC 15692 / PAO1 / 1C / PRS 101 / LMG12228), UniProt P24735); assay: Inhibition of Pseudomonas aeruginosa beta lactamase AmpC
Beta-lactamase (Pseudomonas aeruginosa (strain ATCC 15692 / PAO1 / 1C / PRS 101 / LMG12228), UniProt P24735), sequence (P24735 whole entry): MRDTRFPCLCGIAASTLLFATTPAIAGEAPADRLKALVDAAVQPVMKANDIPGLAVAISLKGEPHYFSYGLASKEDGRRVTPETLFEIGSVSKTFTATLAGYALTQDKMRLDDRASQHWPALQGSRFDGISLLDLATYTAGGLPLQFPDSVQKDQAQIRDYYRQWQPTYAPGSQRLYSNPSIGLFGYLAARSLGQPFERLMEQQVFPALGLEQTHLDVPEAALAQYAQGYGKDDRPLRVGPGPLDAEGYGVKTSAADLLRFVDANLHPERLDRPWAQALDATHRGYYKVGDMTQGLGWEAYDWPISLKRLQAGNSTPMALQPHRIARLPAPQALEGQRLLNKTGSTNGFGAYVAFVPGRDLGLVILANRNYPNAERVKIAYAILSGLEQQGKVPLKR

[4] = Clearance in mouse at 2.5 mg/kg, iv; assay type: ADME, organism-based; parameters: dose 2.5 mg/kg, route intravenous; conditions: in vivo
Pseudomonas aeruginosa [5] = assay: Antimicrobial activity against imipenem-resistant Pseudomonas aeruginosa expressing beta lactamase AmpC assessed as reduction in imipenim MIC up to 100 uM; assay type: functional, organism-based
[6] = Half life in mouse at 2.5 mg/kg, iv; assay type: ADME, organism-based; parameters: dose 2.5 mg/kg, route intravenous; conditions: in vivo
Pseudomonas aeruginosa [7] = assay: Antimicrobial activity against imipenem-resistant Pseudomonas aeruginosa expressing beta lactamase AmpC assessed as reduction in imipenim MIC; assay type: functional, organism-based
Acinetobacter baumannii [8] = assay: Antimicrobial activity against imipenem-resistant Acinetobacter baumannii CL6188 at 100 uM; assay type: functional, organism-based
Acinetobacter baumannii [9] = assay: Antimicrobial activity against imipenem-resistant Acinetobacter baumannii CL6188 assessed as reduction in imipenim MIC; assay type: functional, organism-based
[10] = Volume of distribution in mouse at 2.5 mg/kg, iv; assay type: ADME, organism-based; parameters: dose 2.5 mg/kg, route intravenous; conditions: in vivo
Mus musculus = assay: Dose normalized AUC in mouse at 2.5 mg/kg, iv; assay type: ADME, organism-based; parameters: dose 2.5 mg/kg, route intravenous; conditions: in vivo
[11] = Inhibition of Pseudomonas aeruginosa beta lactamase TEM-1
Pseudomonas aeruginosa [12] = assay: Antimicrobial activity against imipenem-resistant Pseudomonas aeruginosa expressing beta lactamase AmpC up to 100 uM; assay type: functional, organism-based

SMILES: CO/N=C(\C(=O)NCP(=O)(O)Oc1ccc(C#N)c(F)c1)c1cnc(NC(=O)C(Cl)(Cl)Cl)s1 (stereo in doubt; 2b)
- IC50 (Beta-lactamase SHV-5): 15 µM
- IC50 (Beta-lactamase [1]): > 12.5 µM
- IC50 (Beta-lactamase [2]): 0.71 µM
- IC50 (Beta-lactamase [3]): 3 µM

SMILES: CO/N=C(/C(=O)NCP(=O)(O)Oc1ccc(C#N)c(F)c1)c1cccs1
- clearance [4]: 43 mL/min/kg
- Activity (Pseudomonas aeruginosa [5]): Active
- IC50 (Beta-lactamase SHV-5): 22 µM
- half-life [6]: 32.4 min
- Activity (Pseudomonas aeruginosa [7]): Dose-dependent effect
- Activity (Acinetobacter baumannii [8]): inactive
- Activity (Acinetobacter baumannii [9]): Active
- IC50 (Beta-lactamase [1]): 17 µM
- Vd [10]: 1 L/kg
- AUC/dose (Mus musculus): 0.98 µM/h/kg/mg
- IC50 [11]: 28 µM
- IC50 (Beta-lactamase [2]): 0.032 µM
- IC50 (Beta-lactamase [3]): 0.0075 µM
- Activity (Pseudomonas aeruginosa [12]): inactive

SMILES: CO/N=C(\C(=O)NCP(=O)(O)Oc1ccc(C#N)c(F)c1)c1cnc(NC(=O)C(Cl)(Cl)Cl)s1 (stereo in doubt; 2a)
- IC50 (Beta-lactamase SHV-5): 25 µM
- IC50 (Beta-lactamase [1]): > 12.5 µM
- IC50 [11]: > 50 µM
- IC50 (Beta-lactamase [2]): 0.34 µM
- IC50 (Beta-lactamase [3]): 3 µM

SMILES: N#Cc1ccc(OP(=O)([O-])CNC(=O)/C(=N\OCCC[n+]2ccccc2)c2cccs2)cc1F (stereo in doubt; 6a)
- IC50 (Beta-lactamase SHV-5): > 50 µM
- IC50 (Beta-lactamase [1]): 27 µM
- IC50 [11]: 17 µM
- IC50 (Beta-lactamase [2]): 0.087 µM
- IC50 (Beta-lactamase [3]): 0.021 µM

SMILES: CO/N=C(\C(=O)NCP(=O)(O)O)c1cccs1
- IC50 (Beta-lactamase SHV-5): > 50 µM
- IC50 (Beta-lactamase [1]): > 50 µM
- IC50 [11]: > 50 µM
- IC50 (Beta-lactamase [2]): 21 µM
- IC50 (Beta-lactamase [3]): 6.5 µM

SMILES: N#Cc1ccc(OP(=O)([O-])CNC(=O)/C(=N\OCCC[n+]2ccccc2)c2cccs2)cc1F (stereo in doubt; 6b)
- IC50 (Beta-lactamase SHV-5): > 50 µM
- IC50 (Beta-lactamase [1]): > 50 µM
- IC50 [11]: > 50 µM
- IC50 (Beta-lactamase [2]): 0.17 µM
- IC50 (Beta-lactamase [3]): 0.087 µM

SMILES: CO/N=C(/C(=O)NCP(=O)(O)Oc1ccc(C#N)c(F)c1)c1ccc(Cl)s1
- Activity (Pseudomonas aeruginosa [5]): Active
- Activity (Pseudomonas aeruginosa [7]): Dose-dependent effect
- Activity (Acinetobacter baumannii [8]): inactive
- Activity (Acinetobacter baumannii [9]): inactive
- IC50 (Beta-lactamase [1]): 31 µM
- IC50 [11]: 16 µM
- IC50 (Beta-lactamase [2]): 0.019 µM
- IC50 (Beta-lactamase [3]): 0.005 µM
- Activity (Pseudomonas aeruginosa [12]): inactive

SMILES: N#Cc1ccc(OP(=O)(O)CNC(=O)C(=NO)c2cccs2)cc1F
- IC50 (Beta-lactamase SHV-5): 27 µM
- IC50 (Beta-lactamase [1]): 21 µM
- IC50 [11]: 23 µM
- IC50 (Beta-lactamase [2]): 0.1 µM
- IC50 (Beta-lactamase [3]): 0.2 µM

SMILES: CON=C(C(=O)NCP(=O)(O)Oc1ccc(C#N)c(F)c1)c1cccs1
- IC50 (Beta-lactamase SHV-5): > 50 µM
- IC50 (Beta-lactamase [1]): > 50 µM
- IC50 [11]: > 50 µM
- IC50 (Beta-lactamase [2]): 0.039 µM
- IC50 (Beta-lactamase [3]): 0.0096 µM

SMILES: CO/N=C(\C(=O)NCP(=O)(O)Oc1ccc(C#N)c(F)c1)c1cnc(N)s1
- IC50 (Beta-lactamase SHV-5): > 50 µM
- IC50 (Beta-lactamase [1]): > 50 µM
- IC50 [11]: > 50 µM
- IC50 (Beta-lactamase [2]): 0.8 µM
- IC50 (Beta-lactamase [3]): 1.5 µM

SMILES: CO/N=C(/C(=O)NCP(=O)(O)O)c1cccs1
- IC50 (Beta-lactamase SHV-5): > 50 µM
- IC50 (Beta-lactamase [1]): > 50 µM
- IC50 [11]: > 50 µM
- IC50 (Beta-lactamase [2]): 3 µM
- IC50 (Beta-lactamase [3]): 3.2 µM

SMILES: CO/N=C(\C(=O)NCP(=O)(O)Oc1ccc(C#N)c(F)c1)c1cccs1
- IC50 (Beta-lactamase SHV-5): > 12.5 µM
- IC50 (Beta-lactamase [1]): 26 µM
- IC50 [11]: > 50 µM
- IC50 (Beta-lactamase [2]): 0.1 µM
- IC50 (Beta-lactamase [3]): 0.046 µM
